Assay [1] concerns TM4SF5-non-expressing cells (SNU449Cp). Nature of the assay: 2D cell growth/proliferation, TM4SF5-non-expressing cells. It counts as cell-based, human. The conditions noted are these: 2D environment (FIG. 3a). How it is done:
The drugs treated were the positive control drug TSAHC or the ST-1-025 isoxazole compound at the given concentrations. From the time of starting culture (0 day), (FIG. 3a) in the case of 2D culture, the number of cells was measured after treating with the drug every 24 hours, or (FIG. 3b) in a 3D environment, the proliferation of cells (spheres) was observed and photographed with an optical microscope on the 5th and 7th days after a single drug treatment at the start of culture.

The test system of assay [2] is SNU449-EV cells. Nature of the assay: Cell migration tracking, control cells. It counts as cell-based, human. The settings on record: SNU449-EV, 2.5, 5.0, or 10.0 µM, 17 hours (FIG. 7). How it is done: SNU449-TM4SF5 cells, which were made to express TM4SF5 using a lentivirus in human hepatocellular carcinoma cells SNU449, and SNU449-EV cells, into which a control vector (empty vector, EV) was injected so that TM4SF5 is not expressed, were seeded to a density of 40% in 8-chamber plates (Thermo) coated with 10 µg/ml collagen type 1 (Advanced Biomatrix). Three hours after seeding in a cell culture environment containing 10% FBS (GenDEPOT), DMSO and drugs were treated in the culture medium at the indicated concentrations. After treating with the drugs, the positions of the same moving cells were repeatedly photographed using a microscope every 20 minutes for 17 hours. The cells were photographed using an IX81-ZDC microscope (Olympus) equipped with a UPLSAPO 10X2, NA0.4 Super Apochromatic objective lens (Olympus). While photographing the cells, a general cell culture environment was created by constantly injecting 5% CO2 at a rate of 40-60 mL/min at 37°C using a controller (Live Cell Instrument). The migration distance and path of the cells were calculated using the "Track Object" application of MetaMorph software (Molecular Devices LLC). […]

Assay [3] concerns SNU449T7 cells. The assay is described as follows: Liver-orthotopic xenograft model of TM4SF5-expressing cell line. The format is in vivo, BALB/c-Nude mice. How it is done:
The next day, the cells were detached by treating with a T/E (Trypsin/EDTA) solution and centrifuged at 150x g for 3 minutes to obtain a pellet. Thereafter, the supernatant was removed, leaving only the pellet. After mixing with matrigel matrix (CORNING) such that the final concentration of EGF was 50 ng/µl, the cell pellet was prepared by resuspension in the mixture of EGF and matrigel. Then, 5x10^5 cells/20 µl were directly injected once into the liver of 6-week-old male BALB/c-Nude mice. At this time, the animals were anesthetized by inhalation with […] isoflurane and injected. From one week after the cell injection, drug ST-5-002 was intraperitoneally injected at 5 mg/kg twice a week. After injecting the drug for a total of 6 times over 3 weeks, the animals were sacrificed at the 4th week of cell injection, and liver tissues were obtained and analyzed.
(a-d) A liver-orthotopic xenograft model was established by directly injecting 5x10^5 SNU449T7 cells into the livers of 6-week-old male BALB/c-Nude mice (n=9), which are deficient in T and B cells but still capable of activating NK cell functions. Starting one week after the cell injection, the drug ST-5-002 was intraperitoneally injected at 5 mg/kg twice a week (a). After a total of 6 injections over 3 weeks, the animals were sacrificed at the 4th week of cell injection, and liver tissues were obtained and images of the livers were taken (b). Body weight was measured every week during the drug injections. Meanwhile, although cancer formation occurred in several places in the liver tissue, the cancer masses were […], and since it was practically difficult to measure the size or volume of small cancer masses due to time constraints for tissue specimen processing, the volume of the largest cancer mass was measured for each liver tissue. The tumor volumes calculated from n=7 liver tissues, excluding the maximum and minimum values, are shown (c). (d) For a portion of the liver tissues, the expression level, distribution, and localization of each factor, as well as the degree of damage to the liver cancer tissue, were confirmed through immunohistochemistry or H&E staining for the given protein factors.
(a-b) As in FIG. 20, a liver-orthotopic xenograft model was established by directly injecting 5x10^5 SNU449T7 cells into the livers of 6-week-old male BALB/c-Nude mice (n=9), which are deficient in T and B cells but still capable of activating NK cell functions. Starting one week after the cell injection, the drug ST-5-002 was intraperitoneally injected at 5 mg/kg twice a week. (b-d) After the end of the experiment, for a portion of the obtained liver tissues, the expression level, distribution, and localization of SLAMF7, SLAMF6, NKG2D, PD-L1, and PD-1 factors, as well as the degree of liver cancer tissue, were confirmed through immunohistochemistry.

The mark [4] stands for this setting: mouse xenograft experiment, liver tissue extracts, Western blotting (FIG. 13e).

`COc1ccc(-c2cc(-c3ccc(N)cc3)no2)cc1` [ST-1-025, 4-(5-(4-methoxyphenyl)isoxazole-3-yl)aniline]: the growth or proliferation entry in assay [1] is reported as “no significant difference”.
As to `COc1ccc(-c2cc(-c3ccc(NC(C)=O)cc3)no2)cc1` [ST-2-001, N-(4-(5-(4-methoxyphenyl)isoxazole-3-yl)phenyl)acetamide], the cell migration entry in assay [2] was “did not change”.
`Cc1ccc(C(=O)Nc2ccc(-c3cc(-c4ccc(O)cc4)no3)cc2)cc1` [ST-5-002, N-(4-(3-(4-hydroxyphenyl)isoxazole-5-yl)phenyl)-4-methylbenzamide]: the “inhibitory effect on liver cancer formation” value in assay [3] (5 mg/kg IP twice a week, 6 times, images (FIG. 20b)) is “distinct”. Further, the “distribution of cells highly expressing PD-L1” value in assay [3] (immunohistochemistry (FIG. 22e)) was “scattered and distributed at a low level inside the tumor”. Further, in assay [3] (immunohistochemistry (FIG. 22d)), the “infiltration of PD-1-expressing cells” value was “scattered and distributed without restriction”. Further, the “expressions of Ki67, AFP, F4/80, CCL2 and CCL20, and laminin γ2” value in assay [3] (immunohistochemistry of liver tissue (FIG. 20d)) was “significantly lower”. Moreover, the “distribution of cells highly expressing SLAMF7” value in assay [3] (immunohistochemistry, interface of small tumors (FIG. 22b)) was “infiltrated and were distributed or localized inside the tumor”. Moreover, in assay [3] (immunohistochemistry, small cancerous areas (FIG. 22c)), the “degree of staining for SLAMF6 and NKG2D” value is on record as “further increased inside the tumor area”. Moreover, the tumor volume result in assay [3] (largest cancer mass per liver, 28th day, vs vehicle (FIG. 20c)) is listed as “significantly reduced”. Further, in assay [3] (setting [4]), the SLAMF6 expression result was “increased” and the TIGIT expression level entry was “lowered”.

(Values after patent EP4772500A1, “NOVEL ISOXAZOLE COMPOUND AS TM4SF5-SPECIFIC INHIBITOR AND USE THEREOF” (Seoul National University R&DB Foundation, priority 2023, dated 2025).)
